Results taken from US10801035B2, “Plants having increased tolerance to herbicides” (BASF SE, priority 2011, dated 2020).

Experiments:
Type in all cases: biochemical
[1] = target: T1, Hordeum HPPD variant L320Q (Hordeum vulgare, UniProt O48604, A164G/L320Q/R146V/R147D/R148G); experiment: HPPD activity assay, Hordeum HPPD mutant L320Q; conditions: normalized on wildtype
T1 construct: His6; made in house; host or cells: E. coli BL21 (DE3)
Description: (§1) HPPD produces homogentisic acid and CO2 from 4-hydroxyphenylpyruvate (4-HPP) and O2. The activity assay for HPPD is based on the analysis of homogentisic acid by reversed phase HPLC.
(§2) The assay mixture can contain 150 mM potassium phosphate buffer pH 7.0, 50 mM L-ascorbic acid, 1 μM FeSO4 and 7 μg of purified enzyme in a total volume of 1 ml. Inhibitors are dissolved in DMSO (dimethylsulfoxide) to a concentration of 20 mM or 0.5 mM, respectively. From this stock solution serial five-fold dilutions are prepared in DMSO, which are used in the assay. The respective inhibitor solution accounts for 1% of the assay volume. Thus, final inhibitor concentrations range from 200 μM to 2.5 nM or from 5 μM to 63 pM, respectively. After a preincubation of 30 min the reaction is started by adding 4-HPP to a final concentration of 0.1 mM. […]
(§3) Inhibitors are dissolved in DMSO (dimethylsulfoxide) to a concentration of 0.5 mM. […] IC50 values are calculated using non-linear regression.
(§4) Purified, mutant HPPD enzymes are obtained by the methods described above. […] Apparent michaelis constants (Km) and maximal reaction velocities (Vmax) are calculated by non-linear regression with the software GraphPad Prism 5 (GraphPad Software, La Jolla, USA) using a substrate inhibition model. […] Weighted means (by standard error) of Km and […] values are calculated from at least three independent experiments. […]

[2] = target: T2, Arabidopsis HPPD variant M335H, P336A, E363Q (Arabidopsis thaliana, UniProt P93836, E363Q/M335H/P336A); experiment: HPPD activity assay, Arabidopsis HPPD mutant M335H, P336A, E363Q; conditions: normalized on wildtype
T2 construct: His6 (N); made in house; host or cells: E. coli BL21 (DE3)
T2 sequence (P93836 whole entry M335H/P336A/E363Q): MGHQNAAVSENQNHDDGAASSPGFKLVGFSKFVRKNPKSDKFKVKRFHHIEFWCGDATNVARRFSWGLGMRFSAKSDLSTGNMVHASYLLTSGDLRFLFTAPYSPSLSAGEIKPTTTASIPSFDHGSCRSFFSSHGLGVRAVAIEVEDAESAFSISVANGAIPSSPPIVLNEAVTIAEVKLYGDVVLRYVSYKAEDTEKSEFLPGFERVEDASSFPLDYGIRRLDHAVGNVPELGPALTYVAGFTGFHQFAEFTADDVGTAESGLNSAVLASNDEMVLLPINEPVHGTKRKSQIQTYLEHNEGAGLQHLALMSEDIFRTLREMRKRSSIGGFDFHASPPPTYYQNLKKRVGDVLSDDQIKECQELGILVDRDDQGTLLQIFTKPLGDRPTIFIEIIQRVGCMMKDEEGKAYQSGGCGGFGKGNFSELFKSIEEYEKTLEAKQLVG
Description: as §1, §2, §3, §4

[3] = target: T3, Hordeum HPPD variant L353M, P321R, L320N (Hordeum vulgare, UniProt O48604, L320N/L353M/P321R); experiment: HPPD activity assay, Hordeum HPPD mutant L353M, P321R, L320N; conditions: normalized on wildtype
T3 construct: His6; made in house; host or cells: E. coli BL21 (DE3)
T3 sequence (O48604 whole entry R146V/R147D/R148G/A164G/L320N/P321R/L353M): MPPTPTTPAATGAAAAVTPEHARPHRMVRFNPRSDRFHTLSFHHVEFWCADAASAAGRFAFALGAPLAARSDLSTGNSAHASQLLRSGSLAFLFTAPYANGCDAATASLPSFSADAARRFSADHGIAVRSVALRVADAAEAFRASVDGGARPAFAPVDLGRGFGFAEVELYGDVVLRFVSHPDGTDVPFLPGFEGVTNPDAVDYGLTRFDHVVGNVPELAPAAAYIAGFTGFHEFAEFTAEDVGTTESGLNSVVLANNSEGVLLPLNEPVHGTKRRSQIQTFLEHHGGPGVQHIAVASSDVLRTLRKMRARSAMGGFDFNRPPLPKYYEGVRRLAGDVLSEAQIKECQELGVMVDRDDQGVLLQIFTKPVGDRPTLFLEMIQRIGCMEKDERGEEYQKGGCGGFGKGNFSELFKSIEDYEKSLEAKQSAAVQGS
Description: as §1, §2, §3, §4

[4] = target: T4, Arabidopsis HPPD (SEQ ID: 53) (Arabidopsis thaliana, UniProt P93836); experiment: HPPD activity assay, wildtype Arabidopsis HPPD; conditions: for Normalized tolerance index (TI): Arabidopsis HPPD Wildtype, normalized on wildtype (Table 11); for Ki / TI (tolerance index): Arabidopsis HPPD; for Ki: Cheng-Prusoff from IC50, read-out: Ki (dissociation constant); for TI (tolerance index): not normalized
T4 construct: His6 (N); made in house; host or cells: E. coli BL21 (DE3)
T4 sequence (P93836 1-445): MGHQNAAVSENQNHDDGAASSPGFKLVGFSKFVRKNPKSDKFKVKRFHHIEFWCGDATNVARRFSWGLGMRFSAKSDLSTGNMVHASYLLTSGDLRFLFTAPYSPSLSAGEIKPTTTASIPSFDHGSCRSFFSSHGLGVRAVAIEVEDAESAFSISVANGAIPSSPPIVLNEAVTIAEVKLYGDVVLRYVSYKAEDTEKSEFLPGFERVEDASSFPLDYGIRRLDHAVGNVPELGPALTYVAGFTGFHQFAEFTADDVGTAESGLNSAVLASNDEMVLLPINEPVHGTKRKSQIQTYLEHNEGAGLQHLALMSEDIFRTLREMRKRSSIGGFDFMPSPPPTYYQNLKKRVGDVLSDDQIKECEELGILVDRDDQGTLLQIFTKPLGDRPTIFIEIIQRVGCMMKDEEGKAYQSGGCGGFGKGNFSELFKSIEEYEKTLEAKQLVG
Description: as §1
The assay mixture can contain 150 mM potassium phosphate buffer pH 7.0, 50 mM L-ascorbic acid, 1 μM FeSO4 and 7 μg of purified enzyme in a total volume of 1 ml. Inhibitors are dissolved in DMSO (dimethylsulfoxide) to a concentration of 20 mM or 0.5 mM, respectively. From this stock solution serial five-fold dilutions are prepared in DMSO, which are used in the assay. The respective inhibitor solution accounts for 1% of the assay volume. Thus, final inhibitor concentrations range from 200 μM to 2.5 nM or from 5 μM to 63 pM, respectively. After a preincubation of 30 min the reaction is started by adding 4-HPP to a final concentration of 0.1 mM. The reaction is allowed to proceed for 120 min at room temperature. The reaction is stopped by addition of 100 μl of 4.5 M phosphoric acid.
Activities are normalized by setting the uninhibited enzyme activity to 100%. […] values are calculated using non-linear regression.
The assay mixture can contain 150 mM potassium phosphate buffer pH 7.0, 50 mM L-ascorbic acid, 100 μM Catalase (Sigma-Aldrich), 1 μM FeSO4 and 0.2 units of purified HPPD enzyme in a total volume of 505 μl. 1 unit is defined as the amount of enzyme that is required to produce 1 nmol of HGA per minute at 20° C.
Inhibitors are dissolved in DMSO (dimethylsulfoxide) to a concentration of 0.5 mM. From this stock solution serial five-fold dilutions are prepared in DMSO, which are used in the assay. The respective inhibitor solution accounts for 1% of the assay volume. Thus, final inhibitor concentrations range from 5 μM to 320 pM, respectively. Activities are normalized by setting the uninhibited enzyme activity to 100%. IC50 values are calculated using non-linear regression.
Using methods which are described in the above examples or well known in the art, purified, recombinant wildtype HPPD enzymes are characterized with respect to their kinetic properties and sensitivity towards HPPD inhibiting herbicides. Apparent michaelis constants (Km) and maximal reaction velocities (Vmax) are calculated by non-linear regression with the software GraphPad Prism 5 (GraphPad Software, La Jolla, USA) using a substrate inhibition model. Apparent kcat values are calculated from Vmax assuming 100% purity of the enzyme preparation. Weighted means (by standard error) of Km and […] values are calculated from at least three independent experiments. The Cheng-Prusoff equation for competitive inhibition (Cheng, Y. C.; Prusoff, W. H. Biochem Pharmacol 1973, 22, 3099-3108) is used to calculate dissociation constants (Ki).
Field performance of the HPPD enzyme, which is used as a herbicide tolerance trait may depend not only on its lack of sensitivity towards HPPD inhibiting herbicides but also on its activity. To assess the potential performance of a herbicide tolerance trait a tolerance index (TI) is calculated using the following formula: […]
Easy comparison and ranking of each trait is enabled by normalizing every tolerance index on Hordeum HPPD.

[5] = target: T5, Hordeum HPPD variant V212L (Hordeum vulgare, UniProt O48604, A164G/R146V/R147D/R148G/V212L); experiment: HPPD activity assay, Hordeum HPPD mutant V212L; conditions: normalized on wildtype
T5 construct: His6; made in house; host or cells: E. coli BL21 (DE3)
T5 sequence (O48604 whole entry R146V/R147D/R148G/A164G/V212L): as the sequence (O48604 whole entry R146V/R147D/R148G/A164G/L320N/P321R/L353M) above, with V212L, N320L, R321P, M353L counted along it
Description: as §1, §2, §3, §4

[6] = target: T6, Hordeum HPPD variant L320N (Hordeum vulgare, UniProt O48604, A164G/L320N/R146V/R147D/R148G); experiment: HPPD activity assay, Hordeum HPPD mutant L320N; conditions: normalized on wildtype
T6 construct: His6; made in house; host or cells: E. coli BL21 (DE3)
T6 sequence (O48604 whole entry R146V/R147D/R148G/A164G/L320N): as the sequence (O48604 whole entry R146V/R147D/R148G/A164G/L320N/P321R/L353M) above, with R321P, M353L counted along it
Description: as §1, §2, §3, §4

[7] = target: T7, Hordeum HPPD variant L334E (Hordeum vulgare, UniProt O48604, A164G/L334E/R146V/R147D/R148G); experiment: HPPD activity assay, Hordeum HPPD mutant L334E; conditions: normalized on wildtype
T7 construct: His6; made in house; host or cells: E. coli BL21 (DE3)
T7 sequence (O48604 whole entry R146V/R147D/R148G/A164G/L334E): as the sequence (O48604 whole entry R146V/R147D/R148G/A164G/L320N/P321R/L353M) above, with N320L, R321P, L334E, M353L counted along it
Description: as §1, §2, §3, §4

[8] = target: T8, Hordeum HPPD variant L353M, P321R, V212I, L334E (Hordeum vulgare, UniProt O48604, L334E/L353M/P321R/V212I); experiment: HPPD activity assay, Hordeum HPPD mutant L353M, P321R, V212I, L334E; conditions: normalized on wildtype
T8 construct: His6; made in house; host or cells: E. coli BL21 (DE3)
T8 sequence (O48604 whole entry R146V/R147D/R148G/A164G/V212I/P321R/L334E/L353M): as the sequence (O48604 whole entry R146V/R147D/R148G/A164G/L320N/P321R/L353M) above, with V212I, N320L, L334E counted along it
Description: as §1, §2, §3, §4

T1 sequence (O48604 whole entry R146V/R147D/R148G/A164G/L320Q): as the sequence (O48604 whole entry R146V/R147D/R148G/A164G/L320N/P321R/L353M) above, with N320Q, R321P, M353L counted along it

With `CC1=NOC(c2c(Cl)ccc(C3=C(O)c4ncccc4N(CC(F)F)S3(=O)=O)c2Cl)C1` (centres unmarked) [Inhibitor 1, 3-[2,4-dichloro-3-(3-methyl-4,5-dihydroisoxazol-5-yl)phenyl]-1-(2,2-difluoroethyl)-2,2-dioxo-pyrido[3,2-c]thiazin-4-ol] as the molecule, how does the “Normalized tolerance index (TI)” value [1] read?
Its value is 3.4.

And the “Normalized tolerance index (TI)” value [2]?
The value was 3.

What about the “Normalized tolerance index (TI)” value [3] of the same molecule?
Its value is 2.5.

And the “Normalized tolerance index (TI)” value [4]?
The value was 1.

What about the Ki [4] of the same molecule?
The Ki was 3.3 nM.

And the “TI (tolerance index)” value [4]?
The value was 3.3E−3.

And the “Normalized tolerance index (TI)” value [5]?
The value was 2.6.

And the “Normalized tolerance index (TI)” value [6]?
Its value is 3.3.

What about the “Normalized tolerance index (TI)” value [7] of the same molecule?
The value was 3.8.

And the “Normalized tolerance index (TI)” value [8]?
Its value is 2.4.

Which results are given for `O=S1(=O)C(c2c(Cl)cc(Cl)nc2Cl)=C(O)c2ncccc2N1CC(F)F` [Inhibitor 2, 1-(2,2-difluoroethyl)-2,2-dioxo-3-(2,4,6-trichloro-3-pyridyl)pyrido[3,2-c]thiazin-4-ol]?
Normalized tolerance index (TI) [1]: 1.8; Normalized tolerance index (TI) [2]: 1.2; Normalized tolerance index (TI) [3]: 3; Normalized tolerance index (TI) [4]: 1; Ki [4]: 15 nM; TI (tolerance index) [4]: 1.5E−2; Normalized tolerance index (TI) [5]: 0.5; Normalized tolerance index (TI) [6]: 1.7; Normalized tolerance index (TI) [7]: 2.2; Normalized tolerance index (TI) [8]: 3.8
